# Values quoted from earlier work, collected in EP0156318A2, “C-terminal amide cyclic renin inhibitors containing peptide isosteres” (Merck & Co., Inc., priority 1984, dated 1985).
# Square brackets hold non-standard residues; d marks the D form. Peptide text beside a SMILES is read from it. * marks the point of attachment. Sta = CC(C)C[C@H](N)[C@@H](O)CC(=O)O; Isovaleryl = CC(C)CC(=O)*
# System: hog renin
# Details: after the injection of hog renin into nephrectomized rats
smiles,measurement,value
CC(C)CC(=O)N[C@H](C(=O)N[C@H](C(=O)N[C@@H](CC(C)C)[C@@H](O)CC(=O)N[C@@H](C)C(=O)N[C@@H](CC(C)C)[C@@H](O)CC(=O)O)C(C)C)C(C)C [pepstatin] (Isovaleryl-VV[Sta]A[Sta]-OH),blood pressure in vivo,reduce blood pressure
